Source: ChEMBL document CHEMBL4616630, “Amide-Iminoate Isomerism in Antineuroinflammatory Isoquinoline Alkaloids from Stephania cepharantha” (J Nat Prod, 2020)

Tested on: BV-2
Assay: Ant-inflammatory LPS-induced mouse BV2 cells assessed as reduction in NO production after 24 hrs by Griess reagent based assay
Format: functional, cell-based
Conditions: BV-2, 24 h

| Compound | IC50 |
| --- | --- |
| COc1ccc2cc1Oc1ccc(cc1)C[C@H]1c3cc(c(OC)cc3CCN1C=O)Oc1c(OC)c(OC)cc3c1[C@@H](C2)N(C)CC3 | 12.6 µM |
| COc1ccc2cc1Oc1ccc(cc1)C[C@H]1c3c(cc4c(c3Oc3cc5c(cc3OC)CCN(C=O)[C@@H]5C2)OCO4)CCN1C | 12 µM |
| COC1=C2[C@H]3Cc4ccc(OC)c(O)c4[C@]2(CCN3C=O)C[C@H](OC(C)=O)[C@@H]1O | > 100 µM |
| COC1=C2[C@H]3Cc4ccc(OC)c(O)c4[C@]2(CCN3C=O)C[C@H](O)[C@@H]1OC(C)=O | > 100 µM |
| COc1cc2c3c(c1OC)C1(C=CC(=O)C=C1)C[C@H]3N(C=O)CC2 | > 100 µM |
| O=CN1CCc2cc3c(c4c2[C@H]1Cc1cc(O)ccc1-4)OCO3 | > 100 µM |
| CN(C)c1ccc(O)c2c1C[C@H]1C[C@H]3[C@H](N(C)C)C(O)=C(C(N)=O)C(=O)[C@@]3(O)C(O)=C1C2=O [MINOCYCLINE] | 17.5 µM |
| COC1=C2[C@H]3Cc4ccc(OC)c(O)c4[C@]2(CCN3C=O)C[C@H](OC(C)=O)[C@@H]1OC(C)=O | > 100 µM |
| COC1=C2[C@H]3Cc4ccc(OC)c(O)c4[C@]2(CCN3C=O)C[C@H](O)[C@@H]1O | 37.3 µM |
